# Test results from article PMC10154249, “Unique progerin C-terminal peptide ameliorates Hutchinson–Gilford progeria syndrome phenotype by rescuing BUBR1” (Nature Aging, 2023).
# Key:
# BUBR1 [1] = target: T1, BUBR1 (Homo sapiens, UniProt O60566); test: Pulldown assay of UPCP and BUBR1; type: binding; conditions: pulldown (and MST); His-UPCP 10 μg with Flag beads-BUBR1, 16 h at 4 °C
# T1 construct: made in house
# Description: (§1) Cells were harvested and lysed in buffer A mixed with protease inhibitor cocktail tablet (Roche) after 48 h. […] The beads were washed three times using 1× Tris saline buffer (50 mM Tris-HCl (pH 7.4) and 150 mM NaCl)) for 8 min each. The bound proteins BUBR1 or PTBP1 were eluted with 3×Flag peptide (ApexBio) for 2 h at 4 °C. Finally, BUBR1 or PTBP1 was concentrated and recovered by using the Centrifugal Filters (Amicon Ultra).
# A detailed description of the pulldown assay was described previously. His-UPCP fusion protein was expression in bacteria (BL21) and induced with 0.5 mM isopropyl-β-D-thio-galactoside for 16 h at 16 °C. The bacteria were harvested and lysed in TEN buffer (20 mM Tris-HCl (pH7.4), 0.1mM EDTA, 100 mM NaCl). […] His-UPCP was eluted with Imidazole eluent (50 mM NaH2PO4, 300 mM NaCl and 50 mM Imidazole) for 2 h at 4 °C and concentrated and recovered using centrifugal filters (Amicon Ultra). For the pulldown of His-UPCP and Flag-BUBR1 or Flag-PTBP1, 10 μg His-UPCP was incubated with Flag beads (Biotool, catalog no. B23102), Flag beads-BUBR1 or Flag beads-PTBP1 respectively for 16 h at 4 °C. The beads were washed three times with PBS and added to 1× loading buffer for western blot.
# BUBR1 [2] = target: T1, BUBR1; test: Microscale thermophoresis (MST) of UPCP and BUBR1; type: binding; conditions: Fig. 3d
# Description: as §1
# His-UPCP was eluted with Imidazole eluent for 2 h at 4 °C and concentrated and recovered by using centrifugal filters (Amicon Ultra). Flag-BUBR1 or PTBP1 was purified as described in Affinity purification of Flag-tagged protein. The purified protein was diluted with 0.05% Tween-20 in PBS in to an appropriate concentration (His-UPCP: 50 nM, Flag-BUBR1: 25 μM, Flag-PTBP1: 45 μM). Then, His-UPCP was labeled with RED-Tris-NAT according to the manufacturer’s instructions (NanoTemper, MO-L018). Flag-BUBR1 or Flag-PTBP1 was diluted by 16 concentration gradients in turn and mixed with labeled protein (His-UPCP). The capillaries (MST NT115 premium) were loaded and the samples measured on the instrument (NanoTemper Monolith NT.115). Data were analyzed by MO.AffinityAnalysis and curves were drawn using Origin 2019.
# Lmna^G609G/G609G mice = test: Survival (Kaplan–Meier) of Lmna^G609G/G609G mice; type: in vivo, mouse
# Excerpt: All animal experiments were approved by the Ethics Committee of School of Life Sciences, Northeast Normal University, China (AP20191011) and carried out in accordance with the relevant guidelines: National Standards of the People’s Republic of China (GB/T 35892–2018), Laboratory Animal—Guideline for Ethical Review of Animal Welfare. We generated a mouse model (ICR background), carrying the Lmna^G609G using the BE4-Gam system. The protocols for the BE4-Gam system and microinjection of pronuclear-stage embryos have been described in detail previously[37],[38],[59]. Briefly, a mixture of BE4-Gam mRNA (200 ng μl^–1) and sgRNA-Lmna (30 ng μl^–1) was coinjected into the cytoplasm of pronuclear-stage embryos of the mouse. The injected embryos were transferred to embryo culture medium for 30–60 min, followed by transferring the injected embryos into the recipient mother. The embryos continued to develop and the founder mice (referred to as F0) were born: wild-type mice (Lmna^+/+), heterozygous mice (Lmna^G609G/+) and homozygous mice (Lmna^G609G/G609G). F1 heterozygous mice (Lmna^G609G/+) were obtained by crossing F0 heterozygous mice (Lmna^G609G/+). F2 homozygous mice (Lmna^G609G/G609G) were obtained by crossing F1 heterozygous mice (Lmna^G609G/+). We selected F2 mice (Lmna^+/+ and Lmna^G609G/G609G) for subsequent experiments. The mice were housed with a 12-h light/dark cycle (6:00 to 18:00) in a 20 °C and 40% humidity-controlled room. Water and rodent feed were fed ad libitum.
# For UPCP injection, 14-day-old Lmna^G609G/G609G mice were injected intraperitoneally with either PBS or UPCP (20 mg kg^–1, every other day) and wild-type mice were injected with PBS. All phenotypic analyses were performed after 12 weeks of treatment with UPCP. Bodyweight and lifespan were monitored after UPCP treatment. The survival rate was analyzed by the Kaplan–Meier method. We only included mice that were of sufficient bodyweight at the start of the experiment, typically at least 80% of the average littermate weight of the same sex and genotype. All animals meeting criteria for inclusion were then divided randomly into three groups according to genotype (Lmna^+/+, Lmna^G609G/G609G-Mock and Lmna^G609G/G609G-UPCP).
# T1 sequence (O60566 whole entry): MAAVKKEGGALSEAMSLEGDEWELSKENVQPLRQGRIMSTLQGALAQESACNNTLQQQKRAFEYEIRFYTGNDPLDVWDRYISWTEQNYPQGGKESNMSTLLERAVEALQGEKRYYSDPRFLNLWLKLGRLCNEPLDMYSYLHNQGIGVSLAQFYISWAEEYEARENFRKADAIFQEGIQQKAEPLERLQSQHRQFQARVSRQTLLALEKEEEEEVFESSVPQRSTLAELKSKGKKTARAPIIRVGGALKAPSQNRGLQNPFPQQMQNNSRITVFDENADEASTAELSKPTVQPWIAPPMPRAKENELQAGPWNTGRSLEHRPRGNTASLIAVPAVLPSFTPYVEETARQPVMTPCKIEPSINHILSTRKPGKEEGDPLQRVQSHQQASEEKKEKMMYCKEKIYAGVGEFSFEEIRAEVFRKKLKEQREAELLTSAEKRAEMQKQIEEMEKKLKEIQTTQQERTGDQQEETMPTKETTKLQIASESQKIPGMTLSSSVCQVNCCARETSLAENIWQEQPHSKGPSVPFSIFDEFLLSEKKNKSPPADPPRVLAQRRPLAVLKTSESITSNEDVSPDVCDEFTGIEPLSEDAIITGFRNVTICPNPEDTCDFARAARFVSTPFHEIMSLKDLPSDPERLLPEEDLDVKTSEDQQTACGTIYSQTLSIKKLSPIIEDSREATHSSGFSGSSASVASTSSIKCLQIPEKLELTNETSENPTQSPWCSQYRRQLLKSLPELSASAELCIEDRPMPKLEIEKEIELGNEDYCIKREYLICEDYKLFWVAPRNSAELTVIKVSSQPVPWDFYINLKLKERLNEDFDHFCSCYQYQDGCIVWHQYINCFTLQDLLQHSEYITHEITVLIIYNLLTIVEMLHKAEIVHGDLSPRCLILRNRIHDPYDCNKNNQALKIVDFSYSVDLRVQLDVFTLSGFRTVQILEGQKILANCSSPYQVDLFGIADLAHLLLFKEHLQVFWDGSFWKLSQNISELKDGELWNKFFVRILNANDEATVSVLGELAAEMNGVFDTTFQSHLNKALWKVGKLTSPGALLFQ
substance,measurement,setting,value
"H-YGRKKRRQRRRYNLRSRTVLCGTCGQPADKASASGSGAQSPQNCSIM-OH (cysteines drawn unpaired) [UPCP, unique progerin C-terminal peptide]",direct combination with BUBR1,BUBR1 [1],could combine with BUBR1 directly in vitro
same,"Dose Response Curve, Response","BUBR1 [2]; Dose 3.125e-6, Err-Value 0.164542",928.56
same,"Dose Response Curve, Response","BUBR1 [2]; Dose 6.25e-6, Err-Value 0.285623",930.678
same,"Dose Response Curve, Response","BUBR1 [2]; Dose 1.25e-5, Err-Value 0.150599",932.492
same,"Dose Response Curve, Response","BUBR1 [2]; Dose 1.22E-08, Err-Value 0.206069",919.933
same,"Dose Response Curve, Response","BUBR1 [2]; Dose 1.53E-09, Err-Value 0.561265",919.392
same,"Dose Response Curve, Response","BUBR1 [2]; Dose 1.56E-06, Err-Value 0.465775",925.424
same,"Dose Response Curve, Response","BUBR1 [2]; Dose 1.95E-07, Err-Value 0.135144",920.487
same,"Dose Response Curve, Response","BUBR1 [2]; Dose 2.44E-08, Err-Value 0.0972446",919.498
same,"Dose Response Curve, Response","BUBR1 [2]; Dose 3.05E-09, Err-Value 0.226695",919.513
same,"Dose Response Curve, Response","BUBR1 [2]; Dose 3.81E-10, Err-Value 0.379307",919.141
same,"Dose Response Curve, Response","BUBR1 [2]; Dose 3.91E-07, Err-Value 0.144905",921.751
same,"Dose Response Curve, Response","BUBR1 [2]; Dose 4.88E-08, Err-Value 0.856541",920.216
same,"Dose Response Curve, Response","BUBR1 [2]; Dose 6.10E-09, Err-Value 0.130907",919.306
same,"Dose Response Curve, Response","BUBR1 [2]; Dose 7.63E-10, Err-Value 0.475828",919.4
same,"Dose Response Curve, Response","BUBR1 [2]; Dose 7.81E-07, Err-Value 0.529145",922.85
same,"Dose Response Curve, Response","BUBR1 [2]; Dose 9.77E-08, Err-Value 0.363098",919.824
same,mean survival,"Lmna^G609G/G609G mice; 20 mg kg^–1 i.p. every other day from 14 days of age, PBS 100.9 days",118.6 days
same,median survival,"Lmna^G609G/G609G mice; 20 mg kg^–1 i.p. every other day from 14 days of age, n = 15 UPCP vs n = 17 PBS (100 days)",117 days
same,individual survival,"Lmna^G609G/G609G mice; 20 mg kg^–1 i.p. every other day, female, individual 1 of 9",103 days
same,individual survival,"Lmna^G609G/G609G mice; 20 mg kg^–1 i.p. every other day, female, individual 2 of 9",110 days
same,individual survival,"Lmna^G609G/G609G mice; 20 mg kg^–1 i.p. every other day, female, individual 3 of 9",110 days
same,individual survival,"Lmna^G609G/G609G mice; 20 mg kg^–1 i.p. every other day, female, individual 4 of 9",111 days
same,individual survival,"Lmna^G609G/G609G mice; 20 mg kg^–1 i.p. every other day, female, individual 5 of 9",117 days
same,individual survival,"Lmna^G609G/G609G mice; 20 mg kg^–1 i.p. every other day, female, individual 6 of 9",126 days
same,individual survival,"Lmna^G609G/G609G mice; 20 mg kg^–1 i.p. every other day, female, individual 7 of 9",128 days
same,individual survival,"Lmna^G609G/G609G mice; 20 mg kg^–1 i.p. every other day, female, individual 8 of 9",130 days
same,individual survival,"Lmna^G609G/G609G mice; 20 mg kg^–1 i.p. every other day, female, individual 9 of 9",136 days
same,individual survival,"Lmna^G609G/G609G mice; 20 mg kg^–1 i.p. every other day, male, individual 1 of 6",104 days
same,individual survival,"Lmna^G609G/G609G mice; 20 mg kg^–1 i.p. every other day, male, individual 2 of 6",106 days
same,individual survival,"Lmna^G609G/G609G mice; 20 mg kg^–1 i.p. every other day, male, individual 3 of 6",116 days
same,individual survival,"Lmna^G609G/G609G mice; 20 mg kg^–1 i.p. every other day, male, individual 4 of 6",118 days
same,individual survival,"Lmna^G609G/G609G mice; 20 mg kg^–1 i.p. every other day, male, individual 5 of 6",129 days
same,individual survival,"Lmna^G609G/G609G mice; 20 mg kg^–1 i.p. every other day, male, individual 6 of 6",135 days
same,increase in lifespan (median survival),"Lmna^G609G/G609G mice; 20 mg kg^–1 i.p. every other day, vs PBS-treated mice",17%
